# Assays:
# GALAP (Galium) = assay: Postemergence herbicidal evaluation; type: in vivo, Galium aparine; conditions: postemergence
# Outline: (§1)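 First, seedlings were raised for around two weeks. Next, test material in 50/50 acetone/water containing 0.5% TWEEN 20 was sprayed through a nozzle at 40 psi, equivalent to about 0.0156–0.500 kg/ha. Finally, after 4–5 weeks in the greenhouse, plants were rated 0–9.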
# [1] = system: IPOHE (Morningglory, Ivyleaf); assay: Postemergence herbicidal evaluation; type: in vivo, Ipomoea hederacea; conditions: postemergence
# Outline: as §1
# SETVI (Foxtail, Green) [2] = assay: Postemergence herbicidal evaluation; type: in vivo, Setaria viridis; conditions: postemergence
# Outline: as §1
# [3] = system: TRZAWR (Wheat, Winter, cv Riband); assay: Postemergence herbicidal evaluation; type: in vivo, Triticum aestivum; conditions: postemergence
# Outline: as §1
# ABUTH (Velvetleaf) = assay: Preemergence herbicidal evaluation; type: in vivo, Abutilon theophrasti; conditions: rated 4-5 weeks after treatment
# Outline: (§2)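 In this greenhouse assay, monocot and dicot seeds are planted in soil and treated prior to emergence with an aqueous acetone spray (about 0.0156-0.500 kg/ha). Plants are assessed visually against control on a 0-9 scale after 4-5 weeks.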
# [4] = system: IPOHE (Morningglory, Ivyleaf); assay: Preemergence herbicidal evaluation; type: in vivo, Ipomoea hederacea; conditions: rated 4-5 weeks after treatment
# Outline: as §2
# ECHCG (Barnyardgrass) = assay: Preemergence herbicidal evaluation; type: in vivo, Echinochloa crus-galli; conditions: rated 4-5 weeks after treatment
# Outline: as §2
# SETVI (Foxtail, Green) [5] = assay: Preemergence herbicidal evaluation; type: in vivo, Setaria viridis; conditions: rated 4-5 weeks after treatment
# Outline: as §2
# ZEAMX (Corn, Field) = assay: Preemergence herbicidal evaluation; type: in vivo, Zea mays; conditions: rated 4-5 weeks after treatment
# Outline: as §2
# [6] = system: ECHORC (Watergrass (Calif.)); assay: Preemergence weed control under flooded paddy conditions; type: in vivo, Echinochloa oryzoides; conditions: rated 3-4 weeks after treatment
# Outline: (§3)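 Flooded-pot preemergence screen with silt loam and seeds in the upper 0.5 cm. Dose about 0.0313 to 0.500 kg/ha, delivered into flood water; visual 0-9 score after 3 to 4 weeks.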
# CYPIR (Rice Flatsedge) = assay: as above; type: in vivo, Cyperus iria; conditions: rated 3-4 weeks after treatment
# Outline: as §3
# MOOVA (Monochoria) = assay: as above; type: in vivo, Monochoria vaginalis; conditions: rated 3-4 weeks after treatment
# Outline: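 Silt loam, seeds in top 0.5 cm; flood held 1.5-3 cm; test cpd as acetone/water 50/50 into flood water, ~0.0313-0.500 kg/ha a.i.; greenhouse 3-4 wk; visual 0-9 score vs control.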
# [7] = system: ECHORC (Watergrass (Calif.)); assay: Postemergence weed control under flooded paddy conditions; type: in vivo, Echinochloa oryzoides; conditions: postemergence weeds, 3-4 weeks after treatment
# Outline: (§4)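 With weeds 3 to 5 cm tall and rice at the 1.5 to 2.5 leaf stage, containers were flooded and water held 1.5 to 3 cm above soil. Compounds in 50/50 v/v aqueous/acetone went into the flood water at about 0.0313 to 0.500 kg/ha a.i. Effects were visually rated 0–9 against controls after three to four weeks in the greenhouse.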
# [8] = system: SAGPY (Arrowhead (Pygmaea)); assay: as above; type: in vivo, Sagittaria pygmaea; conditions: postemergence weeds, 3-4 weeks after treatment
# Outline: as §4
structure (smiles),measurement,setting,value
CCOC(=O)CN1C(=O)C(CC(=O)O)S/C1=N/c1cc(-n2c(=O)cc(C(F)(F)F)n(C)c2=O)c(F)cc1Cl (stereo not shown) [Compound 16],GALAP herbicidal rating,GALAP (Galium); rate 0.0157 kg/ha,5.0
same,GALAP herbicidal rating,GALAP (Galium); rate 0.0313 kg/ha,5.3
same,GALAP herbicidal rating,GALAP (Galium); rate 0.0625 kg/ha,6.8
same,GALAP herbicidal rating,GALAP (Galium); rate 0.1250 kg/ha,8.4
same,GALAP herbicidal rating,GALAP (Galium); rate 0.2500 kg/ha,9.0
same,IPOHE herbicidal rating,[1]; rate 0.0157 kg/ha,9.0
same,IPOHE herbicidal rating,[1]; rate 0.0313 kg/ha,9.0
same,IPOHE herbicidal rating,[1]; rate 0.0625 kg/ha,9.0
same,IPOHE herbicidal rating,[1]; rate 0.1250 kg/ha,9.0
same,IPOHE herbicidal rating,[1]; rate 0.2500 kg/ha,9.0
same,SETVI herbicidal rating,"SETVI (Foxtail, Green) [2]; rate 0.0157 kg/ha",9.0
same,SETVI herbicidal rating,"SETVI (Foxtail, Green) [2]; rate 0.0313 kg/ha",7.8
same,SETVI herbicidal rating,"SETVI (Foxtail, Green) [2]; rate 0.0625 kg/ha",9.0
same,SETVI herbicidal rating,"SETVI (Foxtail, Green) [2]; rate 0.1250 kg/ha",9.0
same,SETVI herbicidal rating,"SETVI (Foxtail, Green) [2]; rate 0.2500 kg/ha",9.0
same,TRZAWR herbicidal rating,[3]; rate 0.0157 kg/ha,7.5
same,TRZAWR herbicidal rating,[3]; rate 0.0313 kg/ha,6.5
same,TRZAWR herbicidal rating,[3]; rate 0.0625 kg/ha,7.5
same,TRZAWR herbicidal rating,[3]; rate 0.1250 kg/ha,7.9
same,TRZAWR herbicidal rating,[3]; rate 0.2500 kg/ha,8.5
same,ABUTH preemergence herbicidal rating,ABUTH (Velvetleaf); rate 0.0156 kg/ha,5.6
same,ABUTH preemergence herbicidal rating,ABUTH (Velvetleaf); rate 0.0313 kg/ha,8.1
same,ABUTH preemergence herbicidal rating,ABUTH (Velvetleaf); rate 0.0625 kg/ha,8.8
same,ABUTH preemergence herbicidal rating,ABUTH (Velvetleaf); rate 0.1250 kg/ha,8.9
same,ABUTH preemergence herbicidal rating,ABUTH (Velvetleaf); rate 0.2500 kg/ha,9.0
same,ABUTH preemergence herbicidal rating,ABUTH (Velvetleaf); rate 0.5000 kg/ha,9.0
same,IPOHE preemergence herbicidal rating,[4]; rate 0.0156 kg/ha,0.9
same,IPOHE preemergence herbicidal rating,[4]; rate 0.0313 kg/ha,3.5
same,IPOHE preemergence herbicidal rating,[4]; rate 0.0625 kg/ha,7.6
same,IPOHE preemergence herbicidal rating,[4]; rate 0.1250 kg/ha,8.7
same,IPOHE preemergence herbicidal rating,[4]; rate 0.2500 kg/ha,9.0
same,IPOHE preemergence herbicidal rating,[4]; rate 0.5000 kg/ha,9.0
same,ECHCG preemergence herbicidal rating,ECHCG (Barnyardgrass); rate 0.0156 kg/ha,0.0
same,ECHCG preemergence herbicidal rating,ECHCG (Barnyardgrass); rate 0.0313 kg/ha,0.3
same,ECHCG preemergence herbicidal rating,ECHCG (Barnyardgrass); rate 0.0625 kg/ha,0.6
same,ECHCG preemergence herbicidal rating,ECHCG (Barnyardgrass); rate 0.1250 kg/ha,1.8
same,ECHCG preemergence herbicidal rating,ECHCG (Barnyardgrass); rate 0.2500 kg/ha,4.4
same,ECHCG preemergence herbicidal rating,ECHCG (Barnyardgrass); rate 0.5000 kg/ha,7.1
same,SETVI preemergence herbicidal rating,"SETVI (Foxtail, Green) [5]; rate 0.0156 kg/ha",0.2
same,SETVI preemergence herbicidal rating,"SETVI (Foxtail, Green) [5]; rate 0.0313 kg/ha",1.0
same,SETVI preemergence herbicidal rating,"SETVI (Foxtail, Green) [5]; rate 0.0625 kg/ha",3.7
same,SETVI preemergence herbicidal rating,"SETVI (Foxtail, Green) [5]; rate 0.1250 kg/ha",7.5
same,SETVI preemergence herbicidal rating,"SETVI (Foxtail, Green) [5]; rate 0.2500 kg/ha",8.5
same,SETVI preemergence herbicidal rating,"SETVI (Foxtail, Green) [5]; rate 0.5000 kg/ha",8.9
same,ZEAMX preemergence herbicidal rating,"ZEAMX (Corn, Field); rate 0.0156 kg/ha",0.1
same,ZEAMX preemergence herbicidal rating,"ZEAMX (Corn, Field); rate 0.0313 kg/ha",0.6
same,ZEAMX preemergence herbicidal rating,"ZEAMX (Corn, Field); rate 0.0625 kg/ha",1.4
same,ZEAMX preemergence herbicidal rating,"ZEAMX (Corn, Field); rate 0.1250 kg/ha",1.8
same,ZEAMX preemergence herbicidal rating,"ZEAMX (Corn, Field); rate 0.2500 kg/ha",3.7
same,ZEAMX preemergence herbicidal rating,"ZEAMX (Corn, Field); rate 0.5000 kg/ha",6.0
same,Herbicidal rating ECHORC,[6]; 0.0313 kg/ha,0.0
same,Herbicidal rating ECHORC,[6]; 0.0625 kg/ha,0.0
same,Herbicidal rating ECHORC,[6]; 0.1250 kg/ha,0.0
same,Herbicidal rating ECHORC,[6]; 0.2500 kg/ha,0.0
same,Herbicidal rating CYPIR,CYPIR (Rice Flatsedge); 0.0313 kg/ha,0.0
same,Herbicidal rating CYPIR,CYPIR (Rice Flatsedge); 0.0625 kg/ha,0.0
same,Herbicidal rating CYPIR,CYPIR (Rice Flatsedge); 0.1250 kg/ha,4.0
same,Herbicidal rating CYPIR,CYPIR (Rice Flatsedge); 0.2500 kg/ha,9.0
same,Herbicidal rating MOOVA,MOOVA (Monochoria); 0.0313 kg/ha,9.0
same,Herbicidal rating MOOVA,MOOVA (Monochoria); 0.0625 kg/ha,9.0
same,Herbicidal rating MOOVA,MOOVA (Monochoria); 0.1250 kg/ha,9.0
same,Herbicidal rating MOOVA,MOOVA (Monochoria); 0.2500 kg/ha,3.0
same,Herbicidal rating ECHORC,[7]; rate 0.0313 kg/ha,0.0
same,Herbicidal rating ECHORC,[7]; rate 0.0625 kg/ha,0.0
same,Herbicidal rating ECHORC,[7]; rate 0.1250 kg/ha,0.0
same,Herbicidal rating ECHORC,[7]; rate 0.2500 kg/ha,0.0
same,Herbicidal rating SAGPY,[8]; rate 0.0313 kg/ha,0.0
same,Herbicidal rating SAGPY,[8]; rate 0.0625 kg/ha,0.0
same,Herbicidal rating SAGPY,[8]; rate 0.1250 kg/ha,0.0
same,Herbicidal rating SAGPY,[8]; rate 0.2500 kg/ha,0.0

# Source: patent US20020137929A1, “1 - (3-heterocyclylphenyl) isothiourea, -isourea, -guanidine and -amidine herbicidal agents” (Intellectual Property Department, BASF Aktiengesellschaft, priority 1998, published 2002)
